US6844342B2, “Heterocyclic substituted 2-methyl-benzimidazole antiviral agents” (Bristol-Myers Squibb Company, priority 2000, dated 2005)

Test system: respiratory syncytial virus Long strain
Assay: Antiviral activity against respiratory syncytial virus in HEp-2 cells (MTT cell protection)
Format: cell-based
Description: The antiviral activity of these compounds against respiratory syncytial virus was determined in HEp-2 (ATCC CCL 23) cells that were seeded in 96 well microtiter plates at 1.5×10^4 cells/100 μL/well in DMEM (Dulbecco's Modified Eagle's Medium) supplemented with penicillin, streptomycin, glutamine, and 10% fetal bovine serum. The cells were incubated overnight at 37° C., the culture medium was removed, and cells were infected (100 μL volume in medium containing 2% fetal bovine serum) with respiratory syncytial virus Long strain at 5000 plaque forming units/mL. The compounds, 100 μL at appropriate dilution, were added to the cells 1 hour post infection. After incubation for 4 days at 37° C., the plates were stained with MTT solution (3-[4,5-dimethlythiazol-2-yl]-2,5-diphenyltetrazolium bromide) and incubated for 4 hours at 37° C. The media was aspirated from the cells and 100 μL/well of acidified isopropanol (per liter: 900 mL isopropanol, 100 mL Triton X100, and 4 mL conc. HCl) was added. Plates were incubated for 15 minutes at room temperature with shaking, and an optical density (OD 540) reading at 540 nanometer (nm) was obtained. The optical density reading is proportional to the number of viable cells. The increase in the number of viable cells reflects the protective, antiviral activity of the compound. […]

EC50 (human respiratory syncytial virus, HEp-2 cells infected with RSV Long strain, compound added 1 hour post infection, 4 days at 37° C., read-out: EC50 (concentration that produces 50% cell protection)): 3000 nM
Compound: NC(=O)c1ncn([C@@H]2O[C@H](CO)[C@@H](O)[C@H]2O)n1 [Ribavirin]
cell protection (at 2.5 μg/mL (corresponding to 10.2 μM), HEp-2 cells, RSV Long strain): 100%
